From publication PMC6576746, “Rational discovery of dual-indication multi-target PDE/Kinase inhibitor for precision anti-cancer therapy using structural systems pharmacology” (PLoS Computational Biology, 2019)

What was measured:
Assay in all cases: biochemical
Design in all cases: DiscoverX KinomeScan competition binding assay across human kinases; per cent of control at 10 and 100 uM
[1] = biological target: T1, VPS34 (Homo sapiens, UniProt Q8NEB9); details: competition binding, % of control; read-out: Percent Control (100 uM Levosimendan)
T1 construct: gene PIK3C3
In short: (§1)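 Binding is expressed as %control, normalised between positive and negative control signals. The compound (levosimendan) was tested at 10 μM and 100 μM in the DiscoverX KinomeScan competition binding format against human kinases.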

[2] = biological target: TBK1 (Homo sapiens, UniProt Q9UHD2); details: competition binding, % of control
In short: as §1

[3] = biological target: CDK4 (Homo sapiens, UniProt P11802); details: competition binding, % of control; read-out: Percent Control (100 uM Levosimendan)
In short: as §1

[4] = biological target: CHEK1 (Homo sapiens, UniProt O14757); details: competition binding, % of control; read-out: Percent Control (100 uM Levosimendan)
In short: as §1

[5] = biological target: FLT3 (Homo sapiens, UniProt P36888); details: competition binding, % of control
In short: as §1

[6] = biological target: PRKD3 (Homo sapiens, UniProt O94806); details: competition binding, % of control; read-out: Percent Control (100 uM Levosimendan)
In short: as §1

[7] = biological target: LIMK1 (Homo sapiens, UniProt P53667); details: competition binding, % of control; read-out: Percent Control (100 uM Levosimendan)
In short: as §1

[8] = biological target: MAP4K2 (Homo sapiens, UniProt Q12851); details: competition binding, % of control; read-out: Percent Control (100 uM Levosimendan)
In short: as §1

[9] = biological target: T2, TRKB (Homo sapiens, UniProt Q16620); details: competition binding, % of control; read-out: Percent Control (100 uM Levosimendan)
T2 construct: gene NTRK2
In short: as §1

[10] = biological target: IGF1R (Homo sapiens, UniProt P08069); details: competition binding, % of control; read-out: Percent Control (100 uM Levosimendan)
In short: as §1

[11] = biological target: PRKX (Homo sapiens, UniProt P51817); details: competition binding, % of control; read-out: Percent Control (100 uM Levosimendan)
In short: as §1

[12] = biological target: MYLK (Homo sapiens, UniProt Q15746); details: competition binding, % of control
In short: as §1

[13] = biological target: EGFR(L858R,T790M) (Homo sapiens, UniProt P00533, L858R/T790M); details: competition binding, % of control; read-out: Percent Control (100 uM Levosimendan)
In short: as §1

[14] = biological target: T3, RPS6KA5(Kin.Dom.2-C-terminal) (Homo sapiens, UniProt O75582); details: competition binding, % of control; read-out: Percent Control (100 uM Levosimendan)
T3 construct: Kin.Dom.2-C-terminal
In short: as §1

[15] = biological target: CAMK4 (Homo sapiens, UniProt Q16566); details: competition binding, % of control; read-out: Percent Control (100 uM Levosimendan)
In short: as §1

[16] = biological target: T4, ABL1-phosphorylated (Homo sapiens, UniProt P00519); details: competition binding, % of control
T4 construct: phosphorylated
In short: as §1

[17] = biological target: T5, CTK (Homo sapiens, UniProt P42679); details: competition binding, % of control; read-out: Percent Control (100 uM Levosimendan)
T5 construct: gene MATK
In short: as §1

[18] = biological target: CSNK1G3 (Homo sapiens, UniProt Q9Y6M4); details: competition binding, % of control
In short: as §1

[19] = biological target: PIK3C2B (Homo sapiens, UniProt O00750); details: competition binding, % of control; read-out: Percent Control (100 uM Levosimendan)
In short: as §1

[20] = read-out: Percent Control (10 uM Levosimendan)
[21] = read-out: Percent Control (100 uM Levosimendan)

Sequence of TBK1 (Q9UHD2 whole entry): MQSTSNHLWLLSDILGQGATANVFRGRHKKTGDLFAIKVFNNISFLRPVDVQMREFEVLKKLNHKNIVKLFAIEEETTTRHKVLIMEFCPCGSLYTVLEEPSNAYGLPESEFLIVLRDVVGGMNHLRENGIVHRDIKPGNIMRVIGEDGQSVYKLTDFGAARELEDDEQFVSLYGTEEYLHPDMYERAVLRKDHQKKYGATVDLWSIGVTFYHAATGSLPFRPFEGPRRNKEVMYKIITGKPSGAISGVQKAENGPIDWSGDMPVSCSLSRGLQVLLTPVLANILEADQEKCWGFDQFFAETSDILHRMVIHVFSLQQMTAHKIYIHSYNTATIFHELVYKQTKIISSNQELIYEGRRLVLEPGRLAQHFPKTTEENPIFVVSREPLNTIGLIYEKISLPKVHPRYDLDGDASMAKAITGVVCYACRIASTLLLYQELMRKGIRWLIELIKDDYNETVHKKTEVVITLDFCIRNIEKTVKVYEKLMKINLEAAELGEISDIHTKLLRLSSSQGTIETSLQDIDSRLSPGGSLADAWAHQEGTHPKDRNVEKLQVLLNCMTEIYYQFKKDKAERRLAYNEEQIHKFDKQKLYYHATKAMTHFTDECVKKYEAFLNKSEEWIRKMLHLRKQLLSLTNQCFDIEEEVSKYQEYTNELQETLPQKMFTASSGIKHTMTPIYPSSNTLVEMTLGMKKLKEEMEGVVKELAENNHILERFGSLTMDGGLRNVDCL
Sequence of MYLK (Q15746 whole entry): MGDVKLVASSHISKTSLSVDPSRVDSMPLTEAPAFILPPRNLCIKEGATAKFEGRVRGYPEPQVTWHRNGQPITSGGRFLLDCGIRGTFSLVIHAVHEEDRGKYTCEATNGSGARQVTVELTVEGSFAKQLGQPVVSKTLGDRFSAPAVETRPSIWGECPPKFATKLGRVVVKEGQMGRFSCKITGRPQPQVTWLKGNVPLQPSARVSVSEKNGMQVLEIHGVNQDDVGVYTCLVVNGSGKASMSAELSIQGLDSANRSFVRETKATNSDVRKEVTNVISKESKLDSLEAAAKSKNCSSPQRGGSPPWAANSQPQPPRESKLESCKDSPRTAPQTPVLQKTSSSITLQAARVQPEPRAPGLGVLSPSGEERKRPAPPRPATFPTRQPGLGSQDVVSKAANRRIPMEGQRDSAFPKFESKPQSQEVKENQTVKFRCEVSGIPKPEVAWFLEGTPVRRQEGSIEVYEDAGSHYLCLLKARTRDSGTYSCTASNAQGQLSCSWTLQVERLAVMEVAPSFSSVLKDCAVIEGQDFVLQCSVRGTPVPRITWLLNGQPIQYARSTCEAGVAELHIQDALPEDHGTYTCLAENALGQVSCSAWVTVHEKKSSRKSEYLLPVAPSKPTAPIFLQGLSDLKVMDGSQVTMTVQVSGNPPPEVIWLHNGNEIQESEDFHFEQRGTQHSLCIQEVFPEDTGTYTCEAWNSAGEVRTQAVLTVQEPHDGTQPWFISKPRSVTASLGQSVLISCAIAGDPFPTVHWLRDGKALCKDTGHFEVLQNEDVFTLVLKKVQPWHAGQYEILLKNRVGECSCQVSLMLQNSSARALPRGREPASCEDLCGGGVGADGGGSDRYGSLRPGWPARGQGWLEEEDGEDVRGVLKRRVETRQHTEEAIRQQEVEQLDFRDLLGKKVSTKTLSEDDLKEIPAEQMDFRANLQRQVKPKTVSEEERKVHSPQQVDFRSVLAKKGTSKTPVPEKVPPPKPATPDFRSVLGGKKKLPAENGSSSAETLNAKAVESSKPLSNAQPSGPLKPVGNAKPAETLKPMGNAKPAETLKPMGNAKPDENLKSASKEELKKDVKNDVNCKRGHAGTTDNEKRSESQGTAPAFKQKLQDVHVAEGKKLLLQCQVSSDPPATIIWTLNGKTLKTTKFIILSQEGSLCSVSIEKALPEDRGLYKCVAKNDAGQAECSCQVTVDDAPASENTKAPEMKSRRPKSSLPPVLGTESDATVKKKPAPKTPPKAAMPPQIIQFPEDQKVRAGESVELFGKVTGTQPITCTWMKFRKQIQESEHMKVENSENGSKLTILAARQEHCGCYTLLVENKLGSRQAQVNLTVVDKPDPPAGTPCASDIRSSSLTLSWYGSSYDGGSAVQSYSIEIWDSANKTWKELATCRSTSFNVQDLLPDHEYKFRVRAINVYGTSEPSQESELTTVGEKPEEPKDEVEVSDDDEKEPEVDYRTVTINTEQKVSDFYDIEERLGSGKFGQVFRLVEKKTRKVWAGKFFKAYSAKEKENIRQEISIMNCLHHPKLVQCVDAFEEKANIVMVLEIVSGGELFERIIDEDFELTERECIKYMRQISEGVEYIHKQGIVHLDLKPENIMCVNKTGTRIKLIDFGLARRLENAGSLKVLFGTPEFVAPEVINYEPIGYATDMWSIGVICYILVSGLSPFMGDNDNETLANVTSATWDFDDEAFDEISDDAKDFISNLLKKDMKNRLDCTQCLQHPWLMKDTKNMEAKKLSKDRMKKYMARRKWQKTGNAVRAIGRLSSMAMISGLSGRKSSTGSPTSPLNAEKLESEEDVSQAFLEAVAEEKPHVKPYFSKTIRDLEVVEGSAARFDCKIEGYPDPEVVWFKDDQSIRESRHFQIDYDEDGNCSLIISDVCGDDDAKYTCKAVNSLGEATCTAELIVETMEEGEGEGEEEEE
Sequence of CSNK1G3 (Q9Y6M4 whole entry): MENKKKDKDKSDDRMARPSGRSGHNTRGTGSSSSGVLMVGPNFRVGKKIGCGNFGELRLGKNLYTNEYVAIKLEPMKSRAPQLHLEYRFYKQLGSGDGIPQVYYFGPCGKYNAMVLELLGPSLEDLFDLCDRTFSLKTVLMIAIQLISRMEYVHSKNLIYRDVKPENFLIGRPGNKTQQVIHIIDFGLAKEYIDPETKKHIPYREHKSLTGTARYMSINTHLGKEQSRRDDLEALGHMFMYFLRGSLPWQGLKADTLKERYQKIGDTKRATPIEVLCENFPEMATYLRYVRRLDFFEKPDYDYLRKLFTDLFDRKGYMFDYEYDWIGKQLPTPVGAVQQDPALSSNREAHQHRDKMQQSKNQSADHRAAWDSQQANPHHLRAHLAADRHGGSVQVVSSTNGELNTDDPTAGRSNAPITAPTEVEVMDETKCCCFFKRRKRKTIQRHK
Sequence of FLT3 (P36888 whole entry): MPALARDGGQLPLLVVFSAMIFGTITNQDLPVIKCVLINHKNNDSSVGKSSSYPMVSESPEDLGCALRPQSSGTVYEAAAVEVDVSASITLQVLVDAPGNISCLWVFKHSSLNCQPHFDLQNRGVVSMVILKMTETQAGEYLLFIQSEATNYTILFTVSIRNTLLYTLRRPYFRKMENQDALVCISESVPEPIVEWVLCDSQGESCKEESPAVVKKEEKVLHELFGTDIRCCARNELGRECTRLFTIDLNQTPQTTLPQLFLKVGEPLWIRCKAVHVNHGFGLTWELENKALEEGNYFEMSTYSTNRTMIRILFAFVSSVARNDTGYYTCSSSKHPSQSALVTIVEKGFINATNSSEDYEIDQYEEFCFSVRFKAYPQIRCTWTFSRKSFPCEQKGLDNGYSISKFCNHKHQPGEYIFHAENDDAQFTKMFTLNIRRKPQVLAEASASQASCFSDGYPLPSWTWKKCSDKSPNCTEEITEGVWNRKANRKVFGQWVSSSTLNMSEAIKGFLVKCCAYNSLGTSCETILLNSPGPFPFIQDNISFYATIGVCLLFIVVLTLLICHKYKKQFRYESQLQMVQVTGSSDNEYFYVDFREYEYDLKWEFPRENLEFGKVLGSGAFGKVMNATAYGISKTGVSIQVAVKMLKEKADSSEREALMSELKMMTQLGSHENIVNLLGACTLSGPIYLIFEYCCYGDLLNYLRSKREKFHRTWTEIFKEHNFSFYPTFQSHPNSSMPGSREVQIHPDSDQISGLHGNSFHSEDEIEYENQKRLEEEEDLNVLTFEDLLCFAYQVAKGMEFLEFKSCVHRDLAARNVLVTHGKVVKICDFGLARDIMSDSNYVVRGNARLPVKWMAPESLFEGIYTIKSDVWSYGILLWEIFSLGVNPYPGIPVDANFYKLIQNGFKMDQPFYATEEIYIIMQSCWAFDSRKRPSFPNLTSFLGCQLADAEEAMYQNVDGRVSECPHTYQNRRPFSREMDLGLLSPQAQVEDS
T5 sequence (P42679 whole entry): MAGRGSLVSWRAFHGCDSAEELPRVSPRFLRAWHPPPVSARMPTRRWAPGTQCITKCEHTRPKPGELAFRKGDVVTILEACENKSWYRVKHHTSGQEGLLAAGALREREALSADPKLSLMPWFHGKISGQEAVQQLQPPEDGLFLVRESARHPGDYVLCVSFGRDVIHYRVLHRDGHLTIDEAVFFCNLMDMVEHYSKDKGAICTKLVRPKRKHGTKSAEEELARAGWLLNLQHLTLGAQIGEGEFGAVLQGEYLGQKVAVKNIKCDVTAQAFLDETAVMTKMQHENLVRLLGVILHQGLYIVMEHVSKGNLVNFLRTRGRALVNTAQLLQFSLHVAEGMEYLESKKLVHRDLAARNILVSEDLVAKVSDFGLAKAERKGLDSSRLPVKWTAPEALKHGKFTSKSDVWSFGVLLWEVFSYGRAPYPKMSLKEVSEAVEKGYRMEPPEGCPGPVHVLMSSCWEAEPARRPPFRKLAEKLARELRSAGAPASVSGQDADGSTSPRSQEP
Sequence of PRKX (P51817 whole entry): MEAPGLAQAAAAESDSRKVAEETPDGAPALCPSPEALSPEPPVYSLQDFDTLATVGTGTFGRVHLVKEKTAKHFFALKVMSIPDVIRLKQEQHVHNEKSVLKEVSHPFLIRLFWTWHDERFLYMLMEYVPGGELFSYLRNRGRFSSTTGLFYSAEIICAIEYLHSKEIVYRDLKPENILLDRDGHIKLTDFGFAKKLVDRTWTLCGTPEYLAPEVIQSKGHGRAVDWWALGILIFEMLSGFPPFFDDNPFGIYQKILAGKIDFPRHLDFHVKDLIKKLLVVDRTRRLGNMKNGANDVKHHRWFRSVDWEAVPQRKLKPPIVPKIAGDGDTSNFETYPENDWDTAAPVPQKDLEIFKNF

remaining binding at 100 µM [1]: 100%
remaining binding at 10 µM [2, 20]: 94%
remaining binding at 100 µM [2, 21]: 38%
remaining binding at 100 µM [3]: 100%
remaining binding at 100 µM [4]: 85%
remaining binding at 10 µM [5, 20]: 24%
remaining binding at 100 µM [5, 21]: 0.9%
remaining binding at 100 µM [6]: 100%
remaining binding at 100 µM [7]: 73%
remaining binding at 100 µM [8]: 100%
remaining binding at 100 µM [9]: 81%
remaining binding at 100 µM [10]: 86%
remaining binding at 100 µM [11]: 76%
remaining binding at 10 µM [12, 20]: 38%
remaining binding at 100 µM [12, 21]: 32%
remaining binding at 100 µM [13]: 82%
remaining binding at 100 µM [14]: 100%
remaining binding at 100 µM [15]: 100%
remaining binding at 10 µM [16, 20]: 100%
remaining binding at 100 µM [16, 21]: 37%
remaining binding at 100 µM [17]: 72%
remaining binding at 10 µM [18, 20]: 83%
remaining binding at 100 µM [18, 21]: 36%
remaining binding at 100 µM [19]: 90%
Structure (SMILES): C[C@@H]1CC(=O)NN=C1c1ccc(NN=C(C#N)C#N)cc1 [levosimendan]
